From patent US12478605B2, “Biochanin a derivatives for treatment of BEST1-related retinopathies” (Universität Regensburg, priority 2020, dated 2025)
Structures can show the parent of a compound that is named as a salt.

Target: T1, mutant BEST1 R218C (Homo sapiens, UniProt O76090, R218C)
T1 construct: expressed in transfected cells
T1 sequence (O76090 1-585 R218C): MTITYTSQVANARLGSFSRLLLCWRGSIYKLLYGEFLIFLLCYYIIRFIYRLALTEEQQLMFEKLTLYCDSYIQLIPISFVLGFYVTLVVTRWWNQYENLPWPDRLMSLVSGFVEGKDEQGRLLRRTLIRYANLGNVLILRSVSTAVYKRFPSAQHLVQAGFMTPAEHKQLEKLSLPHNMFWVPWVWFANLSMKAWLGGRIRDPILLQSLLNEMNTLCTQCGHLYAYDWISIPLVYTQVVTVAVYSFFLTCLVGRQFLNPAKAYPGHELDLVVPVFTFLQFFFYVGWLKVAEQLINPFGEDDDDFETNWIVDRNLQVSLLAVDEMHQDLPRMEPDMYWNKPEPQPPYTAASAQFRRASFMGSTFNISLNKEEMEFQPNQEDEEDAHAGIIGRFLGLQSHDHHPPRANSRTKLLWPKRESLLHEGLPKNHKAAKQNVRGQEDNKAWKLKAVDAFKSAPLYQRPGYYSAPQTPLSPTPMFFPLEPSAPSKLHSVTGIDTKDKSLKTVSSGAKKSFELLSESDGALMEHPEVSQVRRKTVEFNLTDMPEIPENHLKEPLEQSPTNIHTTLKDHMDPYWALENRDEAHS
Experiment: YFP-halide transport assay (I- influx), MDCKII cells expressing mutant BEST1-R218C
Format: cell-based
Conditions: MDCKII cells; cell line not stated; FIG. 4D
Procedure: Human hiPSC-RPE or MDCKII cells were transduced via lentivirus particles which were produced by co-transfecting HEK293T cells with the yellow fluorescence protein (YFPH148Q/I152L)-pLJM1 and helper plasmids pMD2.G and psPAX2 using the Ca^2+ phospate transfection method. After six weeks of cultivation in 96-well black microtiter plates, cells were incubated with 100 mM Cl^− containing solution and basal YFP fluorescence was measured in a Tecan microplate reader. Subsequently Cl^− was replaced with equimolar I^− and decrease of YFP fluorescence intensity was monitored for another 2 min in 10 sec intervals.
To analyze BEST1-mediated anion transport in the cell lines generated in the previous examples, a well-established halide transport assay (Galietta et al., 2001) was adapted. […] Addition of I— leads to specific YFP quenching over time and changes of fluorescence intensities can be monitored on a plate reader. MDCKII cells were incubated with 100 mM Cl— containing solution and steady state YFP fluorescence signal intensities were measured after 6 minutes. Subsequently, Cl— was replaced by equimolar I— and anion permeability was monitored by decreasing YFP intensities as a result of BEST1-mediated I— influx in a time course up to 2 minutes (FIG. 2B). For several independent BEST1 wildtype cell lines a fast kinetic of decreasing fluorescence intensities to ˜30 to 40% was observed while the untransfected control cell lines remained flat (FIGS. 2C and D).
Example 8—Evaluation of BioA(C2H3O2)2 activity in MDCKII cells MDCKII cells co-expressing YFP and BEST1 wildtype or mutant p.(R218C) were seeded on black 96-well plates and cultivated for 6 days to achieve polarity, a requirement for correct basolateral localization of BEST1 in epithelial cells. Compounds were tested separately at 10 μM concentration in a 96-well format. After compound addition for 24 h, cells were subjected to an inwardly directed I— gradient to drive I— influx and produce decreasing (quenched) fluorescence signals. […]

| effect on BEST1-mediated I- influx | SMILES |
| --- | --- |
| no effect | COc1ccc(-c2coc3cc(O)cc(O)c3c2=O)cc1 [Biochanin A] |

Target: T1, mutant BEST1 R218C
Experiment: YFP-based I- efflux assay in MDCKII cells co-expressing YFP and mutant BEST1 R218C
Format: cell-based
Conditions: 5 μM, compound addition for 24 h, FIGS. 6-8
Procedure: MDCKII cells co-expressing yellow fluorescence protein (YFP) and mutant BEST1 R218C were seeded on black 96-well plates and cultivated for 6 days to achieve polarity, a crucial requirement for correct basolateral localization of BEST1 in epithelial cells. Compounds were tested at 5 μM concentration in a 96-well format. After compound addition for 24 h, cells were subjected to an outwardly directed iodid (I^−)-gradient to drive BEST1-mediated I^− efflux and produce increasing fluorescence signals. Each assay consisted of recording of YFP quenching after I^− pre-incubation for 6 min (=100% value), followed by 7 min of recording of increasing fluorescence after addition of the chloride (Cr) containing solution. Changes of fluorescence intensities were monitored on a plate reader. The effect on the kinetics of I— efflux was tested for Biochanin A (FIG. 6A), Trimethoxyisoflavone (FIG. 6B), 5,4-dimethoxy hydroxyisoflavone (FIG. 6C), Biochanin A-7-methyl ether (FIG. 6D), Biochanin A-7-acetate (FIG. 6E), Biochanin A diacetate (FIG. 6F), Biochanin A-7-pentanoate (FIG. 6G), Biochanin A dipentanoate (FIG. 6H), Biochanin A-7-pivalate (FIG. 7A), Biochanin A-dipavalate (FIG. 7B), Biochanin A-7-acrylate (FIG. 7C), Biochanin A diacrylate (FIG. 7D), Biochanin A-7-methyl fumarate (FIG. 7E), Biochanin A-di(methyl fumarate) (FIG. 7F), Biochanin A-7-butylcarbamate (FIG. 7G), Biochanin A di(butylcarbamate) (FIG. 7H), Biochanin A-7-phosphate disodium salt (FIG. 8A), Biochanin A-7-isopropylate (FIG. 8B), 7-pivaloxymethyl-Biochanin A (FIG. 8C), Biochanin A diisopropylate (FIG. 8D), Biochanin A-7-isopropyl carbonate (FIG. 8E), Biochanin A diisopropyl carbonate (FIG. 8F), Isopropyloxycarbonylmethoxy-Biochanin A (FIG. 8G).

| anion transport activity (kinetics of I- efflux) in comparison to untreated cells | SMILES |
| --- | --- |
| strongly increased | C=CC(=O)Oc1cc(OC(=O)C=C)c2c(=O)c(-c3ccc(OC)cc3)coc2c1 [Biochanin A diacrylate] |
| noticeable increased | C=CC(=O)Oc1cc(O)c2c(=O)c(-c3ccc(OC)cc3)coc2c1 [Biochanin A-7-acrylate] |
| strongly increased | COc1ccc(-c2coc3cc(OC(=O)OC(C)C)cc(O)c3c2=O)cc1 [Biochanin A-7-isopropyl carbonate] |
| no or only minimal effect | COC(=O)/C=C/C(=O)Oc1cc(O)c2c(=O)c(-c3ccc(OC)cc3)coc2c1 [Biochanin A-7-methyl fumarate] |
| strongly increased | COc1ccc(-c2coc3cc(OC(=O)OC(C)C)cc(OC(=O)OC(C)C)c3c2=O)cc1 [Biochanin A diisopropyl carbonate] |
| noticeable increased | COc1ccc(-c2coc3cc(OCOC(=O)C(C)(C)C)cc(O)c3c2=O)cc1 [7-pivaloxymethyl-Biochanin A, 7-Pivaloxymethyl-Biochanin A] |
| no or only minimal effect | COc1ccc(-c2coc3cc(OC(=O)C(C)C)cc(O)c3c2=O)cc1 [Biochanin A-7-isopropylate] |
| no or only minimal effect | COc1ccc(-c2coc3cc(O)cc(OC)c3c2=O)cc1 [5,4-dimethoxy-7-hydroxyisoflavone] |
| no or only minimal effect | CCCCC(=O)Oc1cc(O)c2c(=O)c(-c3ccc(OC)cc3)coc2c1 [Biochanin A-7-pentanoate] |
| no or only minimal effect | COc1ccc(-c2coc3cc(OC)cc(O)c3c2=O)cc1 [Biochanin A-7-methyl ether] |
| strongly increased | COc1ccc(-c2coc3cc(OC(=O)C(C)C)cc(OC(=O)C(C)C)c3c2=O)cc1 [Biochanin A diisopropylate] |
| no or only minimal effect | COc1ccc(-c2coc3cc(OC(C)=O)cc(O)c3c2=O)cc1 [Biochanin A-7-acetate] |
| strongly increased | COC(=O)/C=C/C(=O)Oc1cc(OC(=O)/C=C/C(=O)OC)c2c(=O)c(-c3ccc(OC)cc3)coc2c1 [Biochanin A-di(methyl fumarate), Biochanin A di(methyl fumarate)] |
| no or only minimal effect | COc1ccc(-c2coc3cc(O)cc(O)c3c2=O)cc1 [Biochanin A] |
| no or only minimal effect | COc1ccc(-c2coc3cc(OC(=O)C(C)(C)C)cc(O)c3c2=O)cc1 [Biochanin A-7-pivalate] |
| noticeable increased | COc1ccc(-c2coc3cc(OCOC(=O)OC(C)C)cc(O)c3c2=O)cc1 |
| strongly increased | CCCCC(=O)Oc1cc(OC(=O)CCCC)c2c(=O)c(-c3ccc(OC)cc3)coc2c1 [Biochanin A dipentanoate] |
| noticeable increased | COc1ccc(-c2coc3cc(OC(=O)C(C)(C)C)cc(OC(=O)C(C)(C)C)c3c2=O)cc1 [Biochanin A-dipavalate, Biochanin A dipivalate] |

| SMILES | anion transport activity (kinetics of I- efflux) in comparison to untreated cells |
| --- | --- |
| COc1ccc(-c2coc3cc(OP(=O)([O-])[O-])cc(O)c3c2=O)cc1.[Na+].[Na+] [Biochanin A-7-phosphate disodium salt] | noticeable increased |
| CCCCNC(=O)Oc1cc(OC(=O)NCCCC)c2c(=O)c(-c3ccc(OC)cc3)coc2c1 [Biochanin A di(butylcarbamate)] | strongly increased |
| CCCCNC(=O)Oc1cc(O)c2c(=O)c(-c3ccc(OC)cc3)coc2c1 [Biochanin A-7-butylcarbamate] | no or only minimal effect |
